# Results: patent publication US8552024B2, “Azacyclic compounds” (Hoffman-La Roche Inc., priority 2011, dated 2013)
# Biological target: T1, human HSL (Homo sapiens, UniProt Q05469)
# T1 construct: overlapping PCR to generate a full length human HSL ORF with a 3′-His6 tag; made in house; host or cells: High 5 insect cells (baculovirus, pFast-BAC)
# T1 sequence (Q05469 1-1076): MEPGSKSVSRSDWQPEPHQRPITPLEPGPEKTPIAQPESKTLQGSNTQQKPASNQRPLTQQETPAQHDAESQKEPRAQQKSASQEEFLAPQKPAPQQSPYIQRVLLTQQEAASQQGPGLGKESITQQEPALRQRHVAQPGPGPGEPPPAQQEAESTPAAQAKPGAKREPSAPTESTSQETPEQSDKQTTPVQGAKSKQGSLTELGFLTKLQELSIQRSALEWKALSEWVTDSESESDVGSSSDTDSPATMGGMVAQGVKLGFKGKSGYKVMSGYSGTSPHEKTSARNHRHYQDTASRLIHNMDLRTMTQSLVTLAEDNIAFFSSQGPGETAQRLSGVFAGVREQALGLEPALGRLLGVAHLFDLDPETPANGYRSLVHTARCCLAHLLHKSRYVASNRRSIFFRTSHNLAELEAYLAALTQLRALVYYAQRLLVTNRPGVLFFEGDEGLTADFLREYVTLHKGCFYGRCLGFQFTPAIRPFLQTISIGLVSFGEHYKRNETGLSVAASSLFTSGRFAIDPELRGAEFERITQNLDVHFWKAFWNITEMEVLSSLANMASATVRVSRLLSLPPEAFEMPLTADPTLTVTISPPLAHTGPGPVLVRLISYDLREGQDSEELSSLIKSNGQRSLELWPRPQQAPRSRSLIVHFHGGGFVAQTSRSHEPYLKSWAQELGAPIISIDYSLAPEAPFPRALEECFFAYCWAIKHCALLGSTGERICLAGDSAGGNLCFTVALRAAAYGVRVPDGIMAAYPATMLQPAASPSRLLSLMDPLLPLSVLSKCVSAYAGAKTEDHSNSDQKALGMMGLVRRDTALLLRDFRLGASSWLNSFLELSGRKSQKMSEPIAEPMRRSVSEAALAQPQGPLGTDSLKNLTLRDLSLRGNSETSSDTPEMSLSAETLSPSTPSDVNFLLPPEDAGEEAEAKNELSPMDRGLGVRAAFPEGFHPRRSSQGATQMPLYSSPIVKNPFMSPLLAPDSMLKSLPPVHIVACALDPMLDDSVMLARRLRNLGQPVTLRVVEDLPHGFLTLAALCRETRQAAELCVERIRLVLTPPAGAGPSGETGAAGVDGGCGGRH
# Assay: Human Hormone-Sensitive Lipase (HSL) enzyme inhibition assay (colorimetric, DMPT substrate)
# Format: biochemical
# Conditions: human full length HSL-His6; substrate 2,3-dimercapto-1-propanol tributyrate; 37° C., 20 minutes; absorbance at 405 nm; read-out: HSL hum IC50
# Experimental: Production of Human full length Hormone Sensitive Lipase-His^6:
# 1) Cloning: cDNA was prepared from commercial human brain polyA+ RNA and used as a template in overlapping PCR to generate a full length human HSL ORF with a 3′-His6 tag. This full length insert was cloned into the pFast-BAC vector and the DNA-sequence of several single clones was verified. DNA from a correct full length clone with the 3′His6 tag was used to transform the E. coli strain DH10BAC. Resulting bacmid DNA was used to generate a titered baculovirus stock for protein generation. The sequence of the encoded HSL conforms to Swissprot entry Q05469, with the additional C-terminal His6-tag. 2) Protein purification: Culture: 5.5 L, High 5 cells expressing human full length HSL-His^6, 48 hr., containing 25 μM E-64. Cell count: 1.78×10^10 cells/ml, 90% viable. Cells were thawed. On ice, cells were suspended in Base Buffer containing 10% glycerol, 25 mM Tris-Cl, 300 mM NaCl, 10 mM imidazole, 10 mM 2-mercaptoethanol, 2 μg pepstatin/ml, 2 μg leupeptin/ml, 2 μg antipain/ml, pH 8.0 at 4° C. in a final volume of 475 ml with 3.75×10^7 cells/ml. […] was done at 3×30 sec., Lubrol PX was added to 0.2% final concentration followed by stirring for 15 min. at 4° C. and centrifugation at 25 k×g, 60 min., 4° C. Soluble proteins were mixed with 60 ml of pre-washed and equilibrated Ni-NTA Agarose (Qiagen 30210) followed by tumbling end-over-end, 45 min., 4° C., centrifugation 1000 rpm 5 min and letting resin settle 5 min. Supernatant was removed, the resin washed in the centrifuge vessel using 5 volumes of Base Buffer containing 0.2% Lubrol PX. Centrifugation was done again, then the supernatant discarded. The resin was poured onto a 0.8 μm membrane in a disposable filter unit (Nalge 450-0080), and washed with 5 volumes of Base Buffer containing 0.2% Lubrol PX. It was then washed with 30 volumes of Base Buffer containing 60 mM imidazole pH 7.5 at 4° C. The protein was eluated with 5 volumes of 25 mM Tris-Cl, 300 mM NaCl, 200 mM imidazole, 10 mM 2-mercaptoethanol, pH 7.5 at 4° C. by tumbling resin with buffer end-over-end, 30 min., 4° C. The resin was captured on a 0.2 μm membrane disposable filter unit (Millipore SCGP U02 RE) and the eluate collected in the reservoir. The eluate was concentrated using a 30 k MWCO centrifugal filter device (Sartorius Vivascience Vivacell 100, VC1022), to 20 ml. It was then dialyzed overnight at 4° C., two times against 2 L of 10% glycerol, 25 mM Tris-Cl, 300 mM NaCl, 0.2 mM EDTA, 0.2 mM DTT, pH 7.5 at 4° C. The protein was filtered using a 0.22 μm disposable filter unit (Millipore SCGP00525). The protein concentration was calculated from absorbance at 280 nm, using 280=0.67 cm-1 mg-1. Yield was 235 mg, total. The protein was stored at −80° C.
# Human Hormone-Sensitive Lipase (HSL) Enzyme Inhibition Assay:
# HSL enzyme activity was measured by a colorimetric assay using 2,3-dimercapto-1-propanol tributyrate (Aldrich, St. Louis, Mo.) as a substrate. Typically, 1.5 mM 2,3-dimercapto-1-propanol tributyrate (DMPT) in 100 mM MOPS, pH 7.2, 0.2 mg/ml fatty acid-free BSA was prepared by sonication at 4° C. to homogenous suspension. Test compounds (2 mM stock in DMSO) were diluted 3 fold in series in DMSO. Compound solutions were diluted 24 fold in 1.5 mM DMPT containing solution and 18 ul per well was added to 384-well microplates (Corning Costar). Twelve microliters per well of human HSL (15 ug/ml) was added and the reaction mixture was incubated at 37° C. for 20 minutes. Six microliters of 12 mM dithio-bis-(2-nitrobenzoic acid) (DTNB) in DMSO plus 1.2% SDS and 0.6% Triton X-100 were added and the mixture was incubated at room temperature for 15 minutes. Product production was monitored by reading absorbance at 405 nm on an Envision Reader (PerkinElmer Life and Analytical Sciences, Shelton, Conn.).
row,Structure (SMILES),IC50 [nM]
1,"COc1ncccc1N1CCC2(CC1)CCN(c1ccc(OC(F)(F)F)cc1)C2=O [Example 9, 8-(2-Methoxy-pyridin-3-yl)-2-(4-trifluoromethoxy-phenyl)-2,8-diaza-spiro[4.5]decan-1-one]",110
2,"Cc1cnc(F)c(N2CCC3(CC2)CCN(c2ccc(OC(F)(F)F)cc2)C3=O)c1 [Example 10, 8-(2-fluoro-5-methylpyridin-3-yl)-2-(4-(trifluoromethoxy)phenyl)-2,8-diazaspiro[4.5]decan-1-one]",240
3,"COc1ccccc1N1CCC2(CC1)CCN(c1ccc(OC(F)(F)F)cc1)C2=O [Example 7, 8-(2-Methoxy-phenyl)-2-(4-trifluoromethoxy-phenyl)-2,8-diaza-spiro[4.5]decan-1-one]",110
4,"O=C1N(c2ccc(OC(F)(F)F)cc2)CCC12CCN(c1cccc(OC(F)(F)F)c1)CC2 [Example 4, 8-(3-Trifluoromethoxy-phenyl)-2-(4-trifluoromethoxy-phenyl)-2,8-diaza-spiro[4.5]decan-1-one]",630
5,"O=C1N(c2ccc(OC(F)(F)F)cc2)CCC12CCN(c1cc(C(F)(F)F)ccc1F)CC2 [Example 2, 8-(2-Fluoro-5-trifluoromethyl-phenyl)-2-(4-trifluoromethoxy-phenyl)-2,8-diaza-spiro[4.5]decan-1-one]",550
6,"O=C1N(c2ccc(OC(F)(F)F)cc2)CCC12CCN(c1ccc(C(F)(F)F)cc1F)CC2 [Example 1, 8-(2-Fluoro-4-trifluoromethyl-phenyl)-2-(4-trifluoromethoxy-phenyl)-2,8-diaza-spiro[4.5]decan-1-one]",920
7,"O=C1N(c2ccc(OC(F)(F)F)cc2)CCC12CCN(c1ccccc1F)CC2 [Example 3, 8-(2-Fluoro-phenyl)-2-(4-trifluoromethoxy-phenyl)-2,8-diaza-spiro[4.5]decan-1-one]",310
8,"O=C1N(c2ccc(OC(F)(F)F)cc2)CCC12CCN(c1ccccc1Cl)CC2 [Example 5, 8-(2-Chloro-phenyl)-2-(4-trifluoromethoxy-phenyl)-2,8-diaza-spiro[4.5]decan-1-one]",710
9,"COc1ccc(C)cc1N1CCC2(CC1)CCN(c1ccc(OC(F)(F)F)cc1)C2=O [Example 8, 8-(2-Methoxy-5-methyl-phenyl)-2-(4-trifluoromethoxy-phenyl)-2,8-diaza-spiro[4.5]decan-1-one]",100
10,"O=C1N(c2ccc(OC(F)(F)F)cc2)CCC12CCN(c1c(F)cccc1F)CC2 [Example 6, 8-(2,6-Difluoro-phenyl)-2-(4-trifluoromethoxy-phenyl)-2,8-diaza-spiro[4.5]decan-1-one]",960

# Now from value to compound:
row,IC50 [nM],Structure (SMILES)
1,40,"O=C1N(c2ccc(OC(F)(F)F)cc2)CCC12CCN(c1cccnc1O)CC2 [Example 15, 8-(2-Hydroxy-pyridin-3-yl)-2-(4-trifluoromethoxy-phenyl)-2,8-diaza-spiro[4.5]decan-1-one]"
2,900,"O=C1N(c2ccc(OC(F)(F)F)cc2)CCC12CCN(c1cccc(OCc3ccccc3)n1)CC2 [Example 16, 8-(6-Benzyloxy-pyridin-2-yl)-2-(4-trifluoromethoxy-phenyl)-2,8-diaza-spiro[4.5]decan-1-one]"
3,20,"Cn1cccc(N2CCC3(CC2)CCN(c2ccc(OC(F)(F)F)cc2)C3=O)c1=O [Example 11, 8-(1-methyl-2-oxo-1,2-dihydropyridin-3-yl)-2-(4-(trifluoromethoxy)phenyl)-2,8-diazaspiro[4.5]decan-1-one]"
4,60,"Cc1ccc(O)c(N2CCC3(CC2)CCN(c2ccc(OC(F)(F)F)cc2)C3=O)c1 [Example 14, 8-(2-Hydroxy-5-methyl-phenyl)-2-(4-trifluoromethoxy-phenyl)-2,8-diaza-spiro[4.5]decan-1-one]"
5,30,"CCCn1cccc(N2CCC3(CC2)CCN(c2ccc(OC(F)(F)F)cc2)C3=O)c1=O [Example 12, 8-(2-Oxo-1-propyl-1,2-dihydro-pyridin-3-yl)-2-(4-trifluoromethoxy-phenyl)-2,8-diaza-spiro[4.5]decan-1-one]"
6,50,"O=C1N(c2ccc(OC(F)(F)F)cc2)CCC12CCN(c1ccccc1O)CC2 [Example 13, 8-(2-Hydroxy-phenyl)-2-(4-trifluoromethoxy-phenyl)-2,8-diaza-spiro[4.5]decan-1-one]"
7,250,"O=C1N(c2ccc(OC(F)(F)F)cc2)CCC12CCN(c1cccc(O)n1)CC2 [Example 17, 8-(6-Hydroxy-pyridin-2-yl)-2-(4-trifluoromethoxy-phenyl)-2,8-diaza-spiro[4.5]decan-1-one]"
8,20,"C[C@H](Oc1ccc(N2CCC3(CCN(c4cccn(C)c4=O)CC3)C2=O)cc1)C(F)(F)F [Example 18, 8-(1-Methyl-2-oxo-1,2-dihydro-pyridin-3-yl)-2-[4-((S)-2,2,2-trifluoro-1-methyl-ethoxy)-phenyl]-2,8-diaza-spiro[4.5]decan-1-one]"
